The text below walks through data of patent US20170001990A1 (Genentech, Inc., priority 2014, published 2017).

SMILES strings stand for the structures.

The experiment concerns the target Human recombinant carboxy-terminal his-tagged LDHA (amino acids 2-332) (Homo sapiens, UniProt P00338). The experiment is described as follows: LDHA enzyme inhibition assay (NADH fluorescence). The note with it: LDHA IC50 (μM), 1 nM LDHA, NADH and pyruvate, stereochemistry of tested sample given.
Description: Test compounds were diluted in 100% DMSO with 1:3 serial dilutions. […] For the enzyme reaction, serially diluted compounds were added to a mixture of enzyme and NADH. […] Following the baseline read, pyruvate was added to the assay plates and the plates were read with excitation 340 nm and emission 480 nm for 10 minutes every 2.5 seconds. A suitable linear timeframe was selected (150-400 s) to calculate the slope of each concentration tested. The raw data were fitted to 4-parameter dose-response curves using the following equation:
fit=(A+((B−A)/(1+((C/x)̂D))))
inv=(C/((((B−A)/(y−A))−)̂(1/D)))
res=(y−fit) • where A=minimum y, B=maximum y, C=50% y max, and D=slope factor.
The curve bottom was set to the background rate (initial 5 second recording prior to addition of pyruvate) and curve top was set to no inhibitor (DMSO only) control wells rate.
The compounds of the present invention were tested for their capacity to inhibit LDHA activity and activation as described in the enzyme inhibition assay described above.
As a reminder, the IC50 is the concentration that gives 50% inhibition. For the compound `O=C1CC(c2ccsc2)(c2cccc(Cc3ccc(Cl)c(F)c3)n2)NC(=O)C1Sc1ccccc1Cl` (centres unmarked) [Example 130, 6-(6-(4-chloro-3-fluoro-benzyl)pyridin-2-yl)-3-((2-chlorophenyl)thio)-6-(thiophen-3-yl)piperidine-2,4-dione], the 50% inhibitory concentration (IC50) was 0.005 µM. The result for `O=C1CC(c2ccsc2)(c2cccc(NCCC3CC3)n2)NC(=O)C1Sc1ccccc1Cl` (centres unmarked) [Example 131, 3-(2-chlorophenyl)sulfanyl-6-[6-(2-cyclopropyl-ethylamino)-2-pyridyl]-6-(3-thienyl)piperidine-2,4-dione] reads 0.046 µM. Consider `O=C1CC(c2ccsc2)(c2cccc(NCCC3CC3)n2)NC(=O)C1Sc1ccccc1Cl` (centres unmarked) [Example 138, 3-(2-chlorophenyl)sulfanyl-6-[6-(2-cyclopropyl-ethylamino)-2-pyridyl]-6-(3-thienyl)piperidine-2,4-dione], for which the IC50 stood at 0.025 µM. In the case of `O=C1CC(c2ccsc2)(c2cccc(Oc3ccc(F)c(C(F)F)c3)n2)NC(=O)C1Sc1ccccc1Cl` (centres unmarked) [Example 139, 3-(2-chlorophenyl)sulfanyl-6-[6-[3-(difluoro-methyl)-4-fluoro-phenoxy]-2-pyridyl]-6-(3-thienyl) piperidine-2,4-dione], the half-inhibitory concentration (IC50) was 0.009 µM. Consider `O=C1CC(c2ccsc2)(c2cccc(Oc3cccc(C(F)(F)F)c3)n2)NC(=O)C1Sc1ccccc1Cl` (centres unmarked) [Example 140, 3-(2-chlorophenyl)sulfanyl-6-(3-thienyl)-6-[6-[3-(trifluoromethyl)phenoxy]-2-pyridyl]piperidine-2,4-dione], for which the IC50 is 0.012 µM. To `COc1cc(F)cc(Cc2cccc(C3(c4ccsc4)CC(=O)C(Sc4ccccc4Cl)C(=O)N3)n2)c1` (centres unmarked) [Example 147, 3-((2-chlorophenyl)thio)-6-(6-(3-fluoro-5-methoxy-benzyl)pyridin-2-yl)-6-(thiophen-3-yl)piperidine-2,4-dione] belongs 0.008 µM; to `O=C1CC(c2ccsc2)(c2cccc(Oc3ccc(F)c(C(F)(F)F)c3)n2)NC(=O)C1Sc1ccccc1Cl` (centres unmarked) [Example 150, 3-(2-chlorophenyl)sulfanyl-6-[6-[4-fluoro-3-(trifluoromethyl)phenoxy]-2-pyridyl]-6-(3-thienyl) piperidine-2,4-dione], 0.019 µM. To `O=C1CC(c2ccsc2)(c2cccc(Cc3cc(F)cc(F)c3)n2)NC(=O)C1Sc1ccccc1Cl` (centres unmarked) [Example 151, 3-(2-chlorophenyl)sulfanyl-6-[6-[(3,5-difluorophenyl)methyl]-2-pyridyl]-6-(3-thienyl)piperidine-2,4-dione] belongs 0.015 µM. To `O=C1CC(c2ccsc2)(c2cccc(Oc3ccc(F)c(C(F)F)c3)n2)NC(=O)C1Sc1ccccc1Cl` (centres unmarked) [Example 152, 3-(2-chlorophenyl)sulfanyl-6-[6-[3-(difluoromethyl)-4-fluoro-phenoxy]-2-pyridyl]-6-(3-thienyl) piperidine-2,4-dione] belongs 0.006 µM; to `O=C1CC(c2ccsc2)(c2cccc(Oc3cccc(C(F)(F)F)c3)n2)NC(=O)C1Sc1ccccc1Cl` (centres unmarked) [Example 153, 3-(2-chlorophenyl)sulfanyl-6-(3-thienyl)-6-[6-[3-(trifluoromethyl)phenoxy]-2-pyridyl]piperidine-2,4-dione], 0.012 µM; to `O=C1CC(c2ccsc2)(c2cccc(N3CC(C4CCOCC4)C3)n2)NC(=O)C1Sc1ccccc1Cl` (centres unmarked) [Example 162, 3-(2-chlorophenyl)sulfanyl-6-[6-(3-tetrahydropyran-4-ylazetidin-1-yl)-2-pyridyl]-6-(3-thienyl) piperidine-2,4-dione], 0.004 µM. Consider `CCC(C)COc1cccc(C2(c3ccsc3)CC(=O)C(Sc3ccccc3Cl)C(=O)N2)n1` (centres unmarked) [Example 164, 3-(2-chlorophenyl)sulfanyl-6-[6-(2-methylbutoxy)-2-pyridyl]-6-(3-thienyl) piperidine-2,4-dione], for which the 50% inhibitory concentration (IC50) turned out to be 0.009 µM. To `O=C1CC(c2ccsc2)(c2cccc(Oc3ccc(Cl)cc3)n2)NC(=O)C1Sc1ccccc1Cl` (centres unmarked) [Example 167, 6-[6-(4-chlorophenoxy)-2-pyridyl]-3-(2-chlorophenyl) sulfanyl-6-(3-thienyl) piperidine-2,4-dione] belongs 0.006 µM. `O=C1CC(c2ccsc2)(c2cccc(Oc3cccc(C(F)(F)F)c3)n2)NC(=O)C1Sc1ccccc1Cl` (centres unmarked) [Example 169, 3-(2-chlorophenyl)sulfanyl-6-(3-thienyl)-6-[6-[3-(trifluoromethyl)phenoxy]-2-pyridyl]piperidine-2,4-dione]: the concentration for half-maximal inhibition (IC50) came to 0.01 µM. The result for `O=C1CC(c2ccsc2)(c2cccc(NCCC3CC3)n2)NC(=O)C1Sc1ccccc1Cl` (centres unmarked) [Example 173, 3-(2-chlorophenyl)sulfanyl-6-[6-(2-cyclopropyl-ethylamino)-2-pyridyl]-6-(3-thienyl)piperidine-2,4-dione] reads 0.183 µM; that for `O=C1CC(c2ccsc2)(c2cccc(NCCC3CC3)n2)NC(=O)C1Sc1ccccc1Cl` (centres unmarked) [Example 174, 3-(2-chlorophenyl)sulfanyl-6-[6-(2-cyclopropyl-ethylamino)-2-pyridyl]-6-(3-thienyl)piperidine-2,4-dione], 0.068 µM. As for `O=C1CC(c2ccsc2)(c2cccc(Oc3ccc(Cl)cc3)n2)NC(=O)C1Sc1ccccc1Cl` (centres unmarked) [Example 175, 6-[6-(4-chlorophenoxy)-2-pyridyl]-3-(2-chlorophenyl) sulfanyl-6-(3-thienyl) piperidine-2,4-dione], the IC50 amounted to 0.013 µM. To `O=C1CC(c2ccsc2)(c2cccc(N3CCc4ccc(CO)cc43)n2)NC(=O)C1Sc1ccccc1Cl` (centres unmarked) [Example 177, 3-(2-chlorophenyl)sulfanyl-6-[6-[6-(hydroxymethyl)indolin-1-yl]-2-pyridyl]-6-(3-thienyl)piperidine-2,4-dione] belongs 0.016 µM. For `CC(COc1cccc(C2(c3ccsc3)CC(=O)C(Sc3ccccc3Cl)C(=O)N2)n1)C1CC1` (centres unmarked) [Example 179, 3-((2-chlorophenyl)thio)-6-(6-(2-cyclopropyl-propoxy)pyridin-2-yl)-6-(thiophen-3-yl)piperidine-2,4-dione], the half-maximal inhibitory concentration (IC50) was determined as 0.014 µM.

Consider `CC1CC1COc1cccc(C2(c3ccsc3)CC(=O)C(Sc3ccccc3Cl)C(=O)N2)n1` (centres unmarked) [Example 183, 3-(2-chlorophenyl)sulfanyl-6-[6-[(2-methylcyclo-propyl)methoxy]-2-pyridyl]-6-(3-thienyl)piperidine-2,4-dione], for which the IC50 amounted to 0.005 µM. With `O=C1CC(c2ccsc2)(c2cccc(OCc3ccncc3)n2)NC(=O)C1Sc1ccccc1Cl` (centres unmarked) [Example 186, 3-(2-chlorophenyl)sulfanyl-6-[6-(4-pyridylmethoxy)-2-pyridyl]-6-(3-thienyl) piperidine-2,4-dione], the IC50 was 0.021 µM. Consider `CCC(C)COc1cccc(C2(c3ccsc3)CC(=O)C(Sc3ccccc3Cl)C(=O)N2)n1` (centres unmarked) [Example 188, 3-(2-chlorophenyl)sulfanyl-6-[6-(2-methylbutoxy)-2-pyridyl]-6-(3-thienyl) piperidine-2,4-dione], for which the IC50 came to 0.015 µM. The result for `O=C1CC(c2ccsc2)(c2cccc(OCCN3CCCC3=O)n2)NC(=O)C1Sc1ccccc1Cl` (centres unmarked) [Example 189, 3-(2-chlorophenyl)sulfanyl-6-[6-[2-(2-oxopyrrolidin-1-yl)ethoxy]-2-pyridyl]-6-(3-thienyl)piperidine-2,4-dione] reads 0.15 µM; that for `CC1(C)OCC(CCOc2cccc(C3(c4ccsc4)CC(=O)C(Sc4ccccc4Cl)C(=O)N3)n2)O1` (centres unmarked) [Example 190, 3-(2-chlorophenyl)sulfanyl-6-[6-[2-(2,2-dimethyl-1,3-dioxolan-4-yl)ethoxy]-2-pyridyl]-6-(3-thienyl) piperidine-2,4-dione], 0.092 µM. To `CC1(C)OCC(CCOc2cccc(C3(c4ccsc4)CC(=O)C(Sc4ccccc4Cl)C(=O)N3)n2)O1` (centres unmarked) [Example 191, 3-(2-chlorophenyl)sulfanyl-6-[6-[2-(2,2-dimethyl-1,3-dioxolan-4-yl)ethoxy]-2-pyridyl]-6-(3-thienyl) piperidine-2,4-dione] belongs 0.158 µM; to `CCC(C)COc1cccc(C2(c3ccsc3)CC(=O)C(Sc3ccccc3Cl)C(=O)N2)n1` (centres unmarked) [Example 210, 3-(2-chlorophenyl)sulfanyl-6-[6-(2-methylbutoxy)-2-pyridyl]-6-(3-thienyl) piperidine-2,4-dione], 0.008 µM; to `CC1(C)OCC(CCOc2cccc(C3(c4ccsc4)CC(=O)C(Sc4ccccc4Cl)C(=O)N3)n2)O1` (centres unmarked) [Example 211, 3-(2-chlorophenyl)sulfanyl-6-[6-[2-(2,2-dimethyl-1,3-dioxolan-4-yl)ethoxy]-2-pyridyl]-6-(3-thienyl) piperidine-2,4-dione], 0.183 µM. To `O=C1CC(c2ccsc2)(c2cccc(Oc3ccc(F)c(F)c3)n2)NC(=O)C1Oc1ccccc1Cl` (centres unmarked) [Example 217, 3-(2-chlorophenoxy)-6-[6-(3,4-difluorophenoxy)-2-pyridyl]-6-(3-thienyl) piperidine-2,4-dione] belongs 0.01 µM; to `O=C1CC(c2ccsc2)(c2cccc(NCCC3CCCCC3)n2)NC(=O)C1Sc1ccccc1Cl` (centres unmarked) [Example 220, 3-(2-chlorophenyl)sulfanyl-6-[6-(2-cyclohexyl-ethylamino)-2-pyridyl]-6-(3-thienyl)piperidine-2,4-dione], 0.162 µM. As to `O=C1CC(c2ccsc2)(c2cccc(OC3CCC3)n2)NC(=O)C1Sc1ccccc1Cl` (centres unmarked) [Example 222, 3-(2-chlorophenyl)sulfanyl-6-[6-(cyclobutoxy)-2-pyridyl]-6-(3-thienyl) piperidine-2,4-dione], the half-inhibitory concentration (IC50) was 0.322 µM. To `O=C1CC(c2ccsc2)(c2cccc(OCC3CCC3)n2)NC(=O)C1Sc1ccccc1Cl` (centres unmarked) [Example 224, 3-(2-chlorophenyl)sulfanyl-6-[6-(cyclobutylmethoxy)-2-pyridyl]-6-(3-thienyl) piperidine-2,4-dione] belongs 0.02 µM; to `CC(C)(C)COc1cccc(C2(c3ccsc3)CC(=O)C(Sc3ccccc3Cl)C(=O)N2)n1` (centres unmarked) [Example 226, 3-(2-chlorophenyl)sulfanyl-6-[6-(2,2-dimethylpropoxy)-2-pyridyl]-6-(3-thienyl) piperidine-2,4-dione], 0.02 µM.
